Test system: S. aureus
Assay: Primary antibacterial screening
Type: cell-based
Details: Staphylococcus aureus
Procedure: The cytotoxicity of the same compounds was evaluated against human fibroblasts (hMRC-5) and mouse macrophages (PMM). All assays were carried out with parent benzylMD (PD, SD-A2′,5′, SD-A3′,5′) and control drug references.
The primary in vitro evaluation of test compounds at LMPH is performed against a broad panel of pathogens to allow proper evaluation of selectivity. Compound stock solutions are prepared in 100% DMSO at 20 mM. The compounds are serially pre-diluted (two-fold or four-fold) in DMSO followed by a further (intermediate) dilution in demineralized water to assure a final in-test DMSO concentration of <1%.

CC[C@H]1OC(=O)[C@H](C)[C@@H](O[C@H]2C[C@@](C)(OC)[C@@H](O)[C@H](C)O2)[C@H](C)[C@@H](O[C@@H]2O[C@H](C)C[C@H](N(C)C)[C@H]2O)[C@](C)(O)C[C@@H](C)C(=O)[C@H](C)[C@@H](O)[C@]1(C)O [Erythromycin]
IC50: 11.3 µM

From PMC13258496, “Synthesis of Methoxylated Benzoxanthones as Drug Metabolites of Antischistosomal Schistodiones—A Limited Environmental Risk” (Molecules, 2026)
